# Source: PMC5847527, “Identification of a novel 2-oxindole fluorinated derivative as in vivo antitumor agent for prostate cancer acting via AMPK activation” (Scientific Reports, 2018)
# Columns and labels:
# [1] = tested on: AMPKα1 1–550 fragment; assay: Activity on isolated AMPKα1 1–550 fragment; type: biochemical, human; conditions: fragment containing the catalytic domain
# From the text: We also assayed the effect of compound 8c on a fragment of the α1 isoform (aa 1–550) that contains the catalytic domain.
# (B) Activity of compound 8c on isolated AMPKα1 1–550 fragment. […] Data are the mean ± S.D. of four experiments. **p < 0.01 and ***p < 0.001 compared by the Student’s t-test.
# [2] = tested on: PC-3 xenograft tumors; assay: PC-3 xenograft tumor growth in nude mice; type: in vivo; conditions: 5 mg/Kg daily, 15 days
# From the text: To validate the therapeutic value of the compound 8c against castration-resistant prostate cancer a murine xenograft model was employed. Due to the potent effect of compound 8c on the aggressive PC-3 cell line and in order to avoid unnecessary wasting of animals according to the 3 Rs guidelines (reduction, replacement, refinement) for the use of animals in research, we only use PC-3 cells for the in vivo studies. PC-3 tumors were induced in nude mice by subcutaneous injection of cells in the right flank of the mouse. When tumors reached a 70 mm^3 volume, mice were daily treated with 5 mg/Kg of compound 8c. In vehicle-treated mice, an increase in tumor growth volume was observed during the course of the study and at the end of experimentation (Fig. 8A).
# Figure 8 Inhibition of prostate tumor xenograft growth in vivo by compound 8c. […]
# Male immunodeficient nude-Foxn1 (nu/nu) mice (Envigo RMS, Barcelona, Spain), 4 to 6 week old, were used for all xenograft studies. […] Tumors were measured with external calipers and volume was calculated by the modified ellipsoidal formula as volume = length × (width)^2 × 0.52 mm^3 [52],[53]. At the end of the study, the mice were sacrificed by placing them in a CO2 gas-filled chamber, and the excised tumors were recovered and homogenized in lysis buffer for protein quantification and Western blotting.
# [3] = tested on: PC-3 and LNCaP cells; assay: MTT cell viability in PC-3 and LNCaP cells under AMPK inhibition or knocking down; type: cell-based, human; conditions: α1AMPK-selective siRNA
# Method: Figure 5 AMPK activation by compound 8c in prostate cancer cells. (A) PC-3 and LNCaP cells were treated with vehicle, 25 µM compound 8c, 25 µM compound 8c + 5 μM Dorsomorphin (8c + D) or 5 μM Dorsomorphin (D), for 1 hour or 24 hours and levels of the phosphorylated AMPK (pAMPK), phosphorylated ACC (pACC), phosphorylated Raptor (pRaptor) forms and HIF1α were determined by Western blot. Upper panel, representative Western blot of three different experiments. β-tubulin (β-Tub) serves as a loading control. Lower panel, densitometric analyses of bands represented as the mean of the ratio pAMPK/AMPK or pACC/ACC. (B) Cell viability monitored by MTT assay in PC-3 and LNCaP cells treated with vehicle, 25 µM and 50 μM compound 8c alone or in the presence of 5 μM Dorsomorphin or transfected with control siRNA (siC) or α1AMPK-selective siRNA (siAMPK). (C) LNCaP cells were treated with vehicle, 25 µM compound 8c, 25 µM compound 8c + 5 μM Dorsomorphin (8c + D) or 5 μM Dorsomorphin (D), for 24 hours and levels of Androgen Receptor (AR), Prostate specific antigen (PSA) and Prostate specific membrane antigen (PSMA) were determined by Western blot.Values were normalized with the control and represent the mean ± SD of at least three independent experiments. *p < 0.05 and **p < 0.01 compared to control and ^#p < 0.05 and ^##p < 0.01 compared with 8c-treated group by the Student’s t-test. […]
smiles,measurement,setting,value
"O=C1Nc2ccccc2C1(F)Cc1ccc(-c2ccccc2)o1 (stereo not shown) [Compound 8c, 3-fluoro-3-((5-phenylfuran-2-yl)methyl)indolin-2-one]",AMPK activity of α1 isoform fragment (aa 1–550),[1],no change in AMPK activity
same,"AMPK activation, ACC phosphorylation, Cyclin D1 and procaspase-3 levels in xenograft tumors",[2]; Western blot of tumors,"promoted AMPK activation, increased ACC phosphorylation, decreased Cyclin D1 and decreased procaspase-3 levels"
same,xenograft tumor growth,"[2]; subcutaneously, nude mice, vs vehicle",significantly reduced tumor growth
same,cell death with AMPK silencing by specific siRNA,[3],prevented 8c-induced cell death
